Results published in PMC8213057, “Targeting ALK2: An Open Science Approach to Developing Therapeutics for the Treatment of Diffuse Intrinsic Pontine Glioma” (Journal of Medicinal Chemistry, 2020).
Where “and” joins values, the source holds several entries; their conditions need not be identical. Identical values can stand only once.

How the values were obtained:
[1] = target: T1, P38g (Homo sapiens, UniProt P53778); details: 1 μM; Run 1, Run 2
T1 sequence (P53778 1-367): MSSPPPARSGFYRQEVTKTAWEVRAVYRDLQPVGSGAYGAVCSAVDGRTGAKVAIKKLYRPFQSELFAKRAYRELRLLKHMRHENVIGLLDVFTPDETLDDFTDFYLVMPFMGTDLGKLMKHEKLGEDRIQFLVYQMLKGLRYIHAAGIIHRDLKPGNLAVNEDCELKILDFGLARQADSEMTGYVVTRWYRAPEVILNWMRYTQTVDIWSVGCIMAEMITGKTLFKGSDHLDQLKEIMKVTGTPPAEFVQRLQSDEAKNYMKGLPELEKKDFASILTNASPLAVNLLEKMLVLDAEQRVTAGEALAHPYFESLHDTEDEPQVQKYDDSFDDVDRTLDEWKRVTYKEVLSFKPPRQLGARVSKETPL

[2] = target: T2, LKB1 (Homo sapiens, UniProt Q15831); details: 1 μM; Run 1, Run 2
T2 sequence (Q15831 1-433): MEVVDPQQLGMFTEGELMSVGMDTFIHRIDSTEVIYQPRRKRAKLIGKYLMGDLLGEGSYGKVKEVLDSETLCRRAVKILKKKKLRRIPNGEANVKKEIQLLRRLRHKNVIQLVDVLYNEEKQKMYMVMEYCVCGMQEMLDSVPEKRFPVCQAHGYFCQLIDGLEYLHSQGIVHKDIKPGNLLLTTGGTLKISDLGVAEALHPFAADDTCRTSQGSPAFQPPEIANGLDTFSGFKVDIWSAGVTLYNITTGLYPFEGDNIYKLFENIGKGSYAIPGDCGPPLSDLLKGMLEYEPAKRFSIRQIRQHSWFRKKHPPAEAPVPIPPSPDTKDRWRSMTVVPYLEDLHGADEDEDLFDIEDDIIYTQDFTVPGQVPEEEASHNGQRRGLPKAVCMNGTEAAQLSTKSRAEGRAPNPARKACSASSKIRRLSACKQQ
T2 sequence (Q7RTN6 1-431 partner): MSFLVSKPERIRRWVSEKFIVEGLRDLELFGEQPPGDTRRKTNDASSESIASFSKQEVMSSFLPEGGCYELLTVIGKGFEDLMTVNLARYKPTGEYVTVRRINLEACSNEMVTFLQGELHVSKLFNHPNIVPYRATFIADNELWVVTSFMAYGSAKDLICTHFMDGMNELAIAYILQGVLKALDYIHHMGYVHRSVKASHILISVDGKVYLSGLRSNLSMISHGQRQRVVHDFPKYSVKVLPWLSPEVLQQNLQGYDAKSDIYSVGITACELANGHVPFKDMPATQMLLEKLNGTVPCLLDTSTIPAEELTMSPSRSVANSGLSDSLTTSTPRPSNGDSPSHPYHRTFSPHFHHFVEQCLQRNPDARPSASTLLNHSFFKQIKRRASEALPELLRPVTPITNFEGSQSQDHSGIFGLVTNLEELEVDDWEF
T2 sequence (Q9Y376 1-341 partner): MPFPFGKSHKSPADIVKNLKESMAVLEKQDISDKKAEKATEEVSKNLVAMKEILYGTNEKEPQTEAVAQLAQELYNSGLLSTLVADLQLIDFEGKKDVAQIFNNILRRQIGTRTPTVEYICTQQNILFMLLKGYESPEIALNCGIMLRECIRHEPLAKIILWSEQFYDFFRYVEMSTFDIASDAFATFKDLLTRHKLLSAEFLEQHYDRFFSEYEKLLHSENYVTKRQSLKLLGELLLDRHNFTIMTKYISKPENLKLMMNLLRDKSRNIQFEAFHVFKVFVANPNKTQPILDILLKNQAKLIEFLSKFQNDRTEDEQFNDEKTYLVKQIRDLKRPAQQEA

[3] = target: CDK19/cyclin C (Homo sapiens, UniProt Q9BWU1); test: biochemical; details: read-out: % enzyme activity, 1 μM; Run 1, Run 2
Sequence of CDK19/cyclin C (Q9BWU1 whole entry): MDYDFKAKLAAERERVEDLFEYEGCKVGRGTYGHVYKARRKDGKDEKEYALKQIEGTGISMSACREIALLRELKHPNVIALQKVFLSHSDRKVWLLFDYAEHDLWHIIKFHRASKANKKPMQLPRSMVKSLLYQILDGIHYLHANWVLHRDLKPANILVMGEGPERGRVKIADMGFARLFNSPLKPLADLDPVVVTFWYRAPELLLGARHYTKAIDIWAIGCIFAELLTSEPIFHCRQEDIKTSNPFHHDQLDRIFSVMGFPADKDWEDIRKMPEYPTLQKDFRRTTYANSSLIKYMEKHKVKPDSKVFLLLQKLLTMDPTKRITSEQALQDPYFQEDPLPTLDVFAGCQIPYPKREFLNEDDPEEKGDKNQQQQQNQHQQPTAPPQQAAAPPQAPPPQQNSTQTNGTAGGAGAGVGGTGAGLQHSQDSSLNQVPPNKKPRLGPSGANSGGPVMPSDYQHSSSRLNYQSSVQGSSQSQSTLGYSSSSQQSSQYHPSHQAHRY
Sequence of CDK19/cyclin C (P24863 whole entry partner): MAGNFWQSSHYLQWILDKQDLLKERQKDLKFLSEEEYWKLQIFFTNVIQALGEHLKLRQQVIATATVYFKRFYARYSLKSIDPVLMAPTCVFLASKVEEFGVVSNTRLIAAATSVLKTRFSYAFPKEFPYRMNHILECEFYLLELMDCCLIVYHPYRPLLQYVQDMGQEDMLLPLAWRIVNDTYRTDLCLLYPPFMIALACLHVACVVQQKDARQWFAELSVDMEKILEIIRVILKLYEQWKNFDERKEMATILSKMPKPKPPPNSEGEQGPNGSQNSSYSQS

[4] = target: T3, MKK6 (Homo sapiens, UniProt P52564); test: biochemical; details: read-out: % enzyme activity, 1 μM; Run 1, Run 2
T3 sequence (P52564 1-334): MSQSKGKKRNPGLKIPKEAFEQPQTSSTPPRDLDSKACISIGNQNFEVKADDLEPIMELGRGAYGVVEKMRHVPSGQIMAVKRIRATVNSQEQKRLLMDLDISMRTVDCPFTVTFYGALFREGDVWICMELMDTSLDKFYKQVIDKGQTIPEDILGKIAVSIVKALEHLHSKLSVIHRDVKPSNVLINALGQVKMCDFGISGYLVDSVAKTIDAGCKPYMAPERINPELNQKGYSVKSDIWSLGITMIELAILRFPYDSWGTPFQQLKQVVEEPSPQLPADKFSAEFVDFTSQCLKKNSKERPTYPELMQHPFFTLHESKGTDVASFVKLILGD

[5] = test system: TGFBR2
[6] = target: LOK/STK10 (Homo sapiens, UniProt O94804); details: 1 μM; Run 1, Run 2
[7] = target: MRCKb/CDC42BPB (Homo sapiens, UniProt Q9Y5S2); details: 1 μM; Run 1, Run 2
Sequence of MRCKb/CDC42BPB (Q9Y5S2 whole entry): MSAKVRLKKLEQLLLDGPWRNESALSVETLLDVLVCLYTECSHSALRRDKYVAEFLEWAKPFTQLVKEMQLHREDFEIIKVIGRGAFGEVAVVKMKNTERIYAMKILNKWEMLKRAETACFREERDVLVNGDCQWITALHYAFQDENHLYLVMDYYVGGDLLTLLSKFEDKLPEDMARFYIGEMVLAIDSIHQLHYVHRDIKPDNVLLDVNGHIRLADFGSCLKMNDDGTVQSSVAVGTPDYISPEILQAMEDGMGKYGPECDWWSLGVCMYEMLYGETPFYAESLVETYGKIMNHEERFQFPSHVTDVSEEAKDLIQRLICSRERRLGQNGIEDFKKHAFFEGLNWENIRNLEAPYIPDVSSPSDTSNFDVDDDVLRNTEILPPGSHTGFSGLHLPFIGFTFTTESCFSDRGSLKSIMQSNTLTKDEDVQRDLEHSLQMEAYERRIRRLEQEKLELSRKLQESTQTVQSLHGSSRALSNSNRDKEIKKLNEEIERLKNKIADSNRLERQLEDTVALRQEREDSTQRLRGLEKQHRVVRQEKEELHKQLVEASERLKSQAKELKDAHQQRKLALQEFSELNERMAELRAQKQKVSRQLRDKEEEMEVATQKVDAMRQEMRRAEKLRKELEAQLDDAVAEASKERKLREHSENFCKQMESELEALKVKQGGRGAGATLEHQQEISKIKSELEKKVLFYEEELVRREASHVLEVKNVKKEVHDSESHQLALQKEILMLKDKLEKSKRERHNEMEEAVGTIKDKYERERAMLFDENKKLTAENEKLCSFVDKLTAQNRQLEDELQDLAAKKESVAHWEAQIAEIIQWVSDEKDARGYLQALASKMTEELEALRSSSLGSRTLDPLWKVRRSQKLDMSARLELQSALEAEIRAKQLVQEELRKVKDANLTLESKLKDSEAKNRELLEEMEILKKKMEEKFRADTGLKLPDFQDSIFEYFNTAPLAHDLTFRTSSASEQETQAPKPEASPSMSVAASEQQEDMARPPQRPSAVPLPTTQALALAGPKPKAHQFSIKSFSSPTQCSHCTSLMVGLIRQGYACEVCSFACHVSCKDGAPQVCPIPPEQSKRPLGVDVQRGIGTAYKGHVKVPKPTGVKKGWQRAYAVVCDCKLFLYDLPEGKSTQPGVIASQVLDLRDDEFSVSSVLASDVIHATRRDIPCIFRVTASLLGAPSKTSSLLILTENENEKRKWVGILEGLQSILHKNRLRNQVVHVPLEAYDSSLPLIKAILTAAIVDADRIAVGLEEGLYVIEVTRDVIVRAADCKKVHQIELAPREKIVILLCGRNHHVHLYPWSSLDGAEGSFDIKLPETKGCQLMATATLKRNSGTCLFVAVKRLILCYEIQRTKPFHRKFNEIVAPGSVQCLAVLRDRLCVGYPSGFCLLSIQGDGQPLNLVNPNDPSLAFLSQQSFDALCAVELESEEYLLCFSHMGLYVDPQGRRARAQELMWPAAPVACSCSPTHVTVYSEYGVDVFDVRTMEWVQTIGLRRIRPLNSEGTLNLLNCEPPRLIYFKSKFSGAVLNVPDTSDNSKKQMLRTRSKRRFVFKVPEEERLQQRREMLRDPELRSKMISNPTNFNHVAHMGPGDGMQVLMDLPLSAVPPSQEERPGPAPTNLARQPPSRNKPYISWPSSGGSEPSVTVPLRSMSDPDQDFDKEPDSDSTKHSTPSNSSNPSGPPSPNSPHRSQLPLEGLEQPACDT

[8] = target: T3, MKK6; details: 1 μM; Run 1, Run 2
[9] = target: HIPK2 (Homo sapiens, UniProt Q9H2X6); details: 1 μM; Run 1, Run 2
Sequence of HIPK2 (Q9H2X6 whole entry): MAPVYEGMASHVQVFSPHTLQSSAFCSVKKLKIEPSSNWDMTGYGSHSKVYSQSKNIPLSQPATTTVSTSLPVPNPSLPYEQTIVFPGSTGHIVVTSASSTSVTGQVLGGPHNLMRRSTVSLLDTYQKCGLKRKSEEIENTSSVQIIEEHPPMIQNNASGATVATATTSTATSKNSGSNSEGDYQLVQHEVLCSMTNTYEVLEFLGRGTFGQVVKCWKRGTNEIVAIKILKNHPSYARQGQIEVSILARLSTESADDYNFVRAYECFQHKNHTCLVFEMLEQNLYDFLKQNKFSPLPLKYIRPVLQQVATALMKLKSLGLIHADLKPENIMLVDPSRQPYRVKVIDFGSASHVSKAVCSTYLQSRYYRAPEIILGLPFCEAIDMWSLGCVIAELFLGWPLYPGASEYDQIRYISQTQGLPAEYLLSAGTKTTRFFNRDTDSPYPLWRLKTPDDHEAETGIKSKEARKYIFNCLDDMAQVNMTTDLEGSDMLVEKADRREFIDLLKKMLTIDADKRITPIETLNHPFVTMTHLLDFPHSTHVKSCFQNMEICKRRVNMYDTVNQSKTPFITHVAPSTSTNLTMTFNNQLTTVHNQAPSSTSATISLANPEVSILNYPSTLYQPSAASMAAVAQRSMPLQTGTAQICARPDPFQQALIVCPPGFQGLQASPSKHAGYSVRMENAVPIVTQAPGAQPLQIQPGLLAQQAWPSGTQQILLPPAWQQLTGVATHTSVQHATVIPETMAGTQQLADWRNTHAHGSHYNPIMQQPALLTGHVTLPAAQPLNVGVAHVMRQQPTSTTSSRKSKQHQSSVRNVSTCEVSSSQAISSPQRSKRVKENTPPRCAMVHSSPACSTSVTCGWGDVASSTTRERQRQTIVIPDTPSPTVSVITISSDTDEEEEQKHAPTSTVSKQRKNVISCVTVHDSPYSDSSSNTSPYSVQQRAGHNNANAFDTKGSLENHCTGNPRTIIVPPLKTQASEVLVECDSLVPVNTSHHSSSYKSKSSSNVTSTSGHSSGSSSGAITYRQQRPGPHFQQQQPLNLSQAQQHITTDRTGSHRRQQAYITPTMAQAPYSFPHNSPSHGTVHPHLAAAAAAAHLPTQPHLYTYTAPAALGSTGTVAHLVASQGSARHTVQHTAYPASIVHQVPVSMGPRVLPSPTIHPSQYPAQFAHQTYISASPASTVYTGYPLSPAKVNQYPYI

[10] = target: ROCK1 (Homo sapiens, UniProt Q13464); test: biochemical; details: read-out: % enzyme activity, 1 μM; Run 1, Run 2
[11] = target: GRK4 (Homo sapiens, UniProt P32298); details: 1 μM; Run 1, Run 2
Sequence of GRK4 (P32298 whole entry): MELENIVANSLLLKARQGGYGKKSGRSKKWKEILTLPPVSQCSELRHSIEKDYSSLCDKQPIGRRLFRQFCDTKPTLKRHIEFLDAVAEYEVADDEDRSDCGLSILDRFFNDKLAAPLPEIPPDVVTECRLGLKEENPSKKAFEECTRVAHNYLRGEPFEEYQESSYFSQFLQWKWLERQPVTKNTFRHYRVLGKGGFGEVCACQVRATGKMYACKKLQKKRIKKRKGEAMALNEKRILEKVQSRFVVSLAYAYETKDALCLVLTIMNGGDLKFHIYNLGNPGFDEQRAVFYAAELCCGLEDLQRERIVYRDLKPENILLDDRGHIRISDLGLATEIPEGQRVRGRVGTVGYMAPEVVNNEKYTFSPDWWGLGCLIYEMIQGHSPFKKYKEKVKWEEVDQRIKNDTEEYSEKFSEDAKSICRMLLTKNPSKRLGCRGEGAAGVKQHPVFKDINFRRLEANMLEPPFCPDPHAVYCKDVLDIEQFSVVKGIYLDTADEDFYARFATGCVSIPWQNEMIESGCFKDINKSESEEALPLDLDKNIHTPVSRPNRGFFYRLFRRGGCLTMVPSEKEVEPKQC

Row | Compound | % enzyme activity [1] [%] | % enzyme activity [2] [%] | remaining activity at 1 µM [3] [%] | remaining activity at 1 µM [4] [%] | % enzyme activity at 1 μM [5] | % enzyme activity [6] [%] | % enzyme activity [7] [%] | % enzyme activity [8] [%] | % enzyme activity [9] [%] | remaining activity at 1 µM [10] [%] | % enzyme activity [11] [%]
1 | COc1cc(-c2cncc(-c3ccc(N4CCN(C)CC4)cc3)c2C)cc(F)c1C(N)=O [Compound 26a, 2-Fluoro-6-methoxy-4-(4-methyl-5-(4-(4-methylpiperazin-1-yl)phenyl)pyridin-3-yl)benzamide] | 107.36 | 79.50 | 79.1 | 84.4 | 103% and 97.4% | 51.51 | 94.42 | 80.71 | 97.88 | 95 | 79.15
2 | COc1cc(-c2cncc(-c3ccc(N4C[C@@H](C)N(C)[C@@H](C)C4)cc3)c2C)cc(F)c1C(N)=O [Compound 26c, 2-Fluoro-6-methoxy-4-(4-methyl-5-(4-((3R,5S)-3,4,5-trimethylpiperazin-1-yl)phenyl)pyridin-3-yl)benzamide] | 105.83 | 90.86 | 87.1 | 79.7 | 106% and 105% | 68.53 | 99.47 | 79.33 | 101.85 | 94.7 | 92.15
